Laboratory results as given in ChEMBL document CHEMBL1156319, “Synthesis, crystal and antibacterial studies of diversely functionalized tetrahydropyridin-4-ol” (2010).
Values after ≈ are worked out from the molar mass of the structure shown.

Experiments:
Type in all cases: functional
[1] = system: Staphylococcus aureus; experiment: Antibacterial activity against Staphylococcus aureus LCB0001 by two fold serial dilution method
[2] = system: Staphylococcus epidermidis; experiment: Antibacterial activity against Staphylococcus epidermidis LCB0003 by two fold serial dilution method
[3] = system: Enterococcus faecalis; experiment: Antibacterial activity against Enterococcus faecalis LCB0005 by two fold serial dilution method
[4] = system: Enterococcus faecium; experiment: Antibacterial activity against Enterococcus faecium LCB0009 by two fold serial dilution method
[5] = system: Escherichia coli; experiment: Antibacterial activity against Escherichia coli LCB0010 by two fold serial dilution method
[6] = system: Escherichia coli; experiment: Antibacterial activity against Escherichia coli LCB0011 by two fold serial dilution method
[7] = system: Escherichia coli; experiment: Antibacterial activity against Escherichia coli LCB0012 by two fold serial dilution method
[8] = system: Pseudomonas aeruginosa; experiment: Antibacterial activity against Pseudomonas aeruginosa LCB0013 by two fold serial dilution method
[9] = system: Klebsiella pneumoniae; experiment: Antibacterial activity against Klebsiella pneumoniae LCB0014 by two fold serial dilution method
[10] = system: Haemophilus influenzae; experiment: Antibacterial activity against Haemophilus influenzae LCB0015 by two fold serial dilution method
[11] = system: Moraxella catarrhalis; experiment: Antibacterial activity against Moraxella catarrhalis LCB0016 by two fold serial dilution method

Compound | MIC90 [1] [µg/mL] | MIC90 [2] [µg/mL] | MIC90 [3] [µg/mL] | MIC90 [4] [µg/mL] | MIC90 [5] [µg/mL] | MIC90 [6] [µg/mL] | MIC90 [7] [µg/mL] | MIC90 [8] [µg/mL] | MIC90 [9] [µg/mL] | MIC90 [10] [µg/mL] | MIC90 [11] [µg/mL]
CCOC(=O)C1=C(O)CC(c2ccccc2)N(C(=O)CN2CCSCC2)C1c1ccccc1 (stereo not given) | > 128 | > 128 | > 128 | > 128 | > 128 | > 128 | > 128 | > 128 | > 128 | > 128 | 64 (≈ 137 µM)
CCOC(=O)C1=C(O)CC(c2ccccc2)N(C(=O)CSc2ccc3ccccc3c2)C1c1ccccc1 (stereo not given) | > 128 | > 128 | > 128 | 128 (≈ 244 µM) | > 128 | > 128 | > 128 | > 128 | > 128 | > 128 | > 128
CCOC(=O)C1=C(O)CC(c2ccccc2)N(C(=O)C(C)N2CCC(=O)CC2)C1c1ccccc1 (stereo not given) | > 128 | > 128 | > 128 | > 128 | > 128 | > 128 | 128 (≈ 269 µM) | > 128 | > 128 | > 128 | > 128
CCOC(=O)C1=C(O)CC(c2ccccc2)N(C(=O)Cn2ccnc2)C1c1ccccc1 (stereo not given) | 128 (≈ 297 µM) | > 128 | > 128 | > 128 | > 128 | > 128 | 64 (≈ 148 µM) | > 128 | > 128 | > 128 | 64 (≈ 148 µM)
CCOC(=O)C1=C(O)CC(c2ccccc2)N(C(=O)C(C)N2CCN(C)CC2)C1c1ccccc1 (stereo not given) | > 128 | > 128 | > 128 | > 128 | > 128 | > 128 | > 128 | > 128 | > 128 | > 128 | 64 (≈ 134 µM)
CCOC(=O)C1=C(O)CC(c2ccccc2)N(C(=O)C(C)Oc2ccc3ccccc3c2)C1c1ccccc1 (stereo not given) | > 128 | > 128 | > 128 | > 128 | > 128 | > 128 | > 128 | > 128 | > 128 | > 128 | > 128
CCOC(=O)C1=C(O)CC(c2ccccc2)N(C(=O)C(C)Sc2ccc3ccccc3c2)C1c1ccccc1 (stereo not given) | > 128 | > 128 | > 128 | > 128 | > 128 | > 128 | > 128 | > 128 | > 128 | > 128 | > 128
CCOC(=O)C1=C(O)CC(c2ccccc2)N(C(=O)C(C)n2cnc3ccccc32)C1c1ccccc1 (stereo not given) |  | > 128 | > 128 | > 128 | > 128 | > 128 | > 128 | > 128 | > 128 | > 128 | > 128
CCOC(=O)C1=C(O)CC(c2ccccc2)N(C(=O)CN2CCCCC2)C1c1ccccc1 (stereo not given) | > 128 | > 128 | > 128 | 128 (≈ 285 µM) | > 128 | > 128 | 64 (≈ 143 µM) | > 128 | > 128 | > 128 | 32 (≈ 71.3 µM)
CCOC(=O)C1=C(O)CC(c2ccccc2)N(C(=O)C(C)n2nnc(-c3ccccc3)n2)C1c1ccccc1 (stereo not given) | > 128 | > 128 | > 128 | > 128 | > 128 | > 128 | > 128 | > 128 | > 128 | > 128 | > 128
CCOC(=O)C1=C(O)CC(c2ccccc2)N(C(=O)C(C)N2CCSCC2)C1c1ccccc1 (stereo not given) | > 128 | > 128 | > 128 | > 128 | > 128 | > 128 | > 128 | > 128 | > 128 | > 128 | > 128
CCOC(=O)C1=C(O)CC(c2ccccc2)N(C(=O)Cn2nnc3ccccc32)C1c1ccccc1 (stereo not given) | > 128 | > 128 | > 128 | 64 (≈ 133 µM) | > 128 | > 128 | > 128 | > 128 | > 128 | > 128 | > 128
CCOC(=O)C1=C(O)CC(c2ccccc2)N(C(=O)C(C)N2CCCCC2)C1c1ccccc1 (stereo not given) | > 128 | > 128 | > 128 | 128 (≈ 277 µM) | > 128 | > 128 | > 128 | > 128 | > 128 | > 128 | 64 (≈ 138 µM)

Now from value to molecule:

MIC90 [1] [µg/mL] | MIC90 [2] [µg/mL] | MIC90 [3] [µg/mL] | MIC90 [4] [µg/mL] | MIC90 [5] [µg/mL] | MIC90 [6] [µg/mL] | MIC90 [7] [µg/mL] | MIC90 [8] [µg/mL] | MIC90 [9] [µg/mL] | MIC90 [10] [µg/mL] | MIC90 [11] [µg/mL] | Compound
> 128 | > 128 | > 128 | > 128 | > 128 | > 128 | > 128 | > 128 | > 128 | > 128 | 64 (≈ 138 µM) | CCOC(=O)C1=C(O)CC(c2ccccc2)N(C(=O)CN2CCC(=O)CC2)C1c1ccccc1 (stereo not given)
> 128 | > 128 | > 128 | 128 (≈ 252 µM) | > 128 | > 128 | > 128 | > 128 | > 128 | > 128 | > 128 | CCOC(=O)C1=C(O)CC(c2ccccc2)N(C(=O)COc2ccc3ccccc3c2)C1c1ccccc1 (stereo not given)
> 128 | > 128 | > 128 | 128 (≈ 251 µM) | > 128 | > 128 | > 128 | > 128 | > 128 | > 128 | > 128 | CCOC(=O)C1=C(O)CC(c2ccccc2)N(C(=O)Cn2nnc(-c3ccccc3)n2)C1c1ccccc1 (stereo not given)
> 128 | > 128 | > 128 | > 128 | > 128 | > 128 | > 128 | > 128 | > 128 | > 128 | > 128 | CCOC(=O)C1=C(O)CC(c2ccccc2)N(C(=O)C(C)Sc2nc3ccccc3o2)C1c1ccccc1 (stereo not given)
> 128 | > 128 | > 128 | 128 (≈ 276 µM) | > 128 | > 128 | > 128 | > 128 | > 128 | > 128 | 32 (≈ 69 µM) | CCOC(=O)C1=C(O)CC(c2ccccc2)N(C(=O)CN2CCN(C)CC2)C1c1ccccc1 (stereo not given)
> 128 | > 128 | > 128 | > 128 | > 128 | > 128 | 64 (≈ 150 µM) | > 128 | > 128 | > 128 | > 128 | CCOC(=O)C1=C(O)CC(c2ccccc2)N(C(=O)c2ccccc2)C1c1ccccc1 (stereo not given)
> 128 | > 128 | > 128 | > 128 | > 128 | > 128 | > 128 | > 128 | > 128 | > 128 | 64 (≈ 142 µM) | CCOC(=O)C1=C(O)CC(c2ccccc2)N(C(=O)CN2CCOCC2)C1c1ccccc1 (stereo not given)
> 128 | > 128 | > 128 | 128 (≈ 276 µM) | > 128 | > 128 | > 128 | > 128 | > 128 | > 128 | > 128 | CCOC(=O)C1=C(O)CC(c2ccccc2)N(C(=O)C(C)N2CCOCC2)C1c1ccccc1 (stereo not given)
> 128 | > 128 | > 128 | > 128 | > 128 | > 128 | > 128 | > 128 | > 128 | > 128 | > 128 | CCOC(=O)C1=C(O)CC(c2ccccc2)N(C(=O)C(C)n2nnc3ccccc32)C1c1ccccc1 (stereo not given)
> 128 | > 128 | > 128 | > 128 | > 128 | > 128 | 128 (≈ 259 µM) | > 128 | > 128 | > 128 | > 128 | CCOC(=O)C1=C(O)CC(c2ccccc2)N(C(=O)C(C)n2ccc3ccccc32)C1c1ccccc1 (stereo not given)
> 128 | > 128 | > 128 | > 128 | > 128 | > 128 | > 128 | > 128 | > 128 | > 128 | > 128 | CCOC(=O)C1=C(O)CC(c2ccccc2)N(C(=O)CSc2nc3ccccc3o2)C1c1ccccc1 (stereo not given)
> 128 | > 128 | > 128 | > 128 | > 128 | > 128 | > 128 | > 128 | > 128 | > 128 | 32 (≈ 66.6 µM) | CCOC(=O)C1=C(O)CC(c2ccccc2)N(C(=O)Cn2ccc3ccccc32)C1c1ccccc1 (stereo not given)
32 (≈ 71.8 µM) | > 128 | > 128 | > 128 | > 128 | > 128 | 64 (≈ 144 µM) | 128 (≈ 287 µM) | 128 (≈ 287 µM) | > 128 | 64 (≈ 144 µM) | CCOC(=O)C1=C(O)CC(c2ccccc2)N(C(=O)C(C)n2ccnc2)C1c1ccccc1 (stereo not given)
